Our source for the IC50 values is patent publication US9562060B2, “Heterocyclic pyridone compound, and intermediate, preparation method and use thereof” (SHANGHAI HUILUN LIFE SCIENCE & TECHNOLOGY CO., LTD, priority 2011, dated 2017).

This assay concerns the target T1, c-Met kinase (Homo sapiens, UniProt P08581).
T1 construct: purchased Invitrogen PV3143
The assay is described as follows: Inhibitory activity of compound to c-Met kinases (Z'-LYTE kinase assay kit). Conditions: Tyr 6 substrate peptide, read-out: Strength of activity (inhibition on c-Met kinase, IC50). It counts as biochemical. As for the experimental part:
The inhibitory activity of the compound to c-Met kinases in vitro is determined through the following method.
The method described below can be used to determine the inhibiting capacity of the compound of the present invention on the c-Met kinase activity, and the inhibiting capacity is represented by IC50. The half inhibitory concentration IC50 (a concentration of the compound for inhibiting the enzyme activity to 50%) of the compound is obtained by: mixing and reacting a certain amount of kinase with a specific substrate and different concentrations of test compound, and then labeling the substrate with an anti-phosphotyrosine antibody and a […], and finally quantitatively determining the c-Met kinase activity through a time-resolved fluorescence method.
The specific experiment is implemented by using a Z′-LYTE kinase assay kit (Invitrogen, item PV4122). First, the test compound is diluted into 8 different concentrations from 100 μM at an interval of 1:5 with an ATP solution (Invitrogen, item PV3227); 5 μL 2×c-Met (Invitrogen, item PV3143) and 2×Z′-LYTE Tyr 6 substrate peptide are respectively taken up, and added to a 384-well microtiter plate, 5 μL diluted different concentrations of test compound are added in sequence, and the lid is closed. The microtiter plate is incubated for 60 min at room temperature (20° C. to 25° C.); and then 5 μL […] is added, and the lid is closed. The microtiter plate is incubated for 60 min at room temperature (20° C. to 25° C.); and then 5 μL termination reagent is added to the reaction well, to terminate the reaction. Finally, the fluorescence intensity (OD400) of each well is determined in a fluorescence analyzer (excitation wavelength: 400 nm). The inhibition rate is calculated, and the half inhibitory concentration (IC50) of the compound is calculated according to the inhibition rates of different concentrations.
For a negative control group, except that test compound (replaced by 5 μL ATP solution) is not added, all the other reagents are added. In addition, an enzyme-free control group (that is, blank group) is set.

T1 sequence (P08581 25-1390): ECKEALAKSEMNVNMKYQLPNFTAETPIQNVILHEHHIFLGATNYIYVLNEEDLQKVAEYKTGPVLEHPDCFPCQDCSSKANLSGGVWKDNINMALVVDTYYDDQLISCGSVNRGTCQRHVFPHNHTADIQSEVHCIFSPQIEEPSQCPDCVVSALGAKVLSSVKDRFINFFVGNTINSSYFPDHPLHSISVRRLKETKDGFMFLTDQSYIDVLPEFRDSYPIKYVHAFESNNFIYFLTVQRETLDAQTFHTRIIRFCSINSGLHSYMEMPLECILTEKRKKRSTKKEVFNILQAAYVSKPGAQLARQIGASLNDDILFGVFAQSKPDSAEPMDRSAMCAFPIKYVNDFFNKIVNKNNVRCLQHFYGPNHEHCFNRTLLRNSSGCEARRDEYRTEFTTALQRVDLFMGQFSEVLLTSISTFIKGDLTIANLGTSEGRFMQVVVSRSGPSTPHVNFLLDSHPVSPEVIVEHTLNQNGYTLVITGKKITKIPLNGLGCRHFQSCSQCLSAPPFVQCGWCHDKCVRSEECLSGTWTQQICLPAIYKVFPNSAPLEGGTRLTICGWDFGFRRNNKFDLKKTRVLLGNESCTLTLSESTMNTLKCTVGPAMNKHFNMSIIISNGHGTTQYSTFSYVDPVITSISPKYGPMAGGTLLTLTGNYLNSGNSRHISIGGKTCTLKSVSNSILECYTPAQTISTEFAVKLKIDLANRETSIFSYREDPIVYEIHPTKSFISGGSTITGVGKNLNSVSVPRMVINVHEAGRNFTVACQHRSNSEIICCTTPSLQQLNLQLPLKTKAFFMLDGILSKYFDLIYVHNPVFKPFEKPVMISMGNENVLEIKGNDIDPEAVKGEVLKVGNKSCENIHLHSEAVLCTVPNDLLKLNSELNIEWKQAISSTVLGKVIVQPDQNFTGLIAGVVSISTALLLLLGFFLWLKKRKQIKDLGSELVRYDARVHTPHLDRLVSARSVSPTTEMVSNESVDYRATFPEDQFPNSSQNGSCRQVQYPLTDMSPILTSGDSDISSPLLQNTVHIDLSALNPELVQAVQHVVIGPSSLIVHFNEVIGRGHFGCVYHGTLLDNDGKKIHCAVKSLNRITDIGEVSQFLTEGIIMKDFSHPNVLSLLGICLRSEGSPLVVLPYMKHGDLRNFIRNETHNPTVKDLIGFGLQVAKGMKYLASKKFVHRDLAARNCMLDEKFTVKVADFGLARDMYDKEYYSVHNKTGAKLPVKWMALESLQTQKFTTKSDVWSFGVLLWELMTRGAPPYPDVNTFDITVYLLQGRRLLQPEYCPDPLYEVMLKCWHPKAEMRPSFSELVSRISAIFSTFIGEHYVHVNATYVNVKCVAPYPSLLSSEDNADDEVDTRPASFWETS

Take `O=C(Nc1ccc(Oc2ccnc(NC(=O)N3CCOCC3)c2)c(F)c1)c1cc2ncsc2n(-c2ccc(F)cc2)c1=O` [Embodiment 11]: the IC50 was 10 to 100 nM.
Turning to `CN(C)CC1CCN(C(=O)Nc2cc(Oc3ccc(NC(=O)c4cc5ncsc5n(-c5ccc(F)cc5)c4=O)cc3F)ccn2)CC1` [Embodiment 13], the IC50 lay within 10 to 100 nM.
The result for `CN(CCO)C(=O)Nc1cc(Oc2ccc(NC(=O)c3cc4ncsc4n(-c4ccc(F)cc4)c3=O)cc2F)ccn1` [Embodiment 14] reads 10 to 100 nM; that for `CN(C)C/C=C/C(=O)Nc1cc(Oc2ccc(NC(=O)c3cc4ncsc4n(-c4ccc(F)cc4)c3=O)cc2F)ccn1` [Embodiment 15], 10 to 100 nM.
As to `Nc1nccc(Oc2ccc(NC(=O)c3cc4ncsc4n(-c4ccccc4CCO)c3=O)cc2F)c1Cl` [Embodiment 19], the IC50 was below 10 nM.
The result for `COc1cc2c(Oc3ccc(NC(=O)c4cc5nc(N(C)C)sc5n(-c5ccc(F)cc5)c4=O)cc3F)ccnc2cc1OCCCN1CCOCC1` [Embodiment 27] reads 10 to 100 nM; that for `COc1ccc2c(Oc3ccc(NC(=O)c4cc5cnn(C)c5n(-c5ccc(F)cc5)c4=O)cc3F)ccnc2c1` [Embodiment 30], 100 to 1000 nM.
For the compound `Cn1cnc2cc(C(=O)Nc3ccc(Oc4ccnc(N)c4Cl)c(F)c3)c(=O)n(-c3ccc(F)cc3)c21` [Embodiment 33], the IC50 is 10 to 100 nM.
`Cn1cnc2cc(C(=O)Nc3ccc(Oc4ccnc(N)c4)c(F)c3)c(=O)n(-c3ccc(F)cc3)c21` [Embodiment 35]: the IC50 lay in the range of 100 to 1000 nM.
As for `CN1CCOc2cc(C(=O)Nc3ccc(Oc4ccnc(N)c4)c(F)c3)c(=O)n(-c3ccc(F)cc3)c21` [Embodiment 39], the IC50 lay within 10 to 100 nM.
For the compound `COc1ccc2c(Oc3ccc(NC(=O)c4cc5c(n(-c6ccc(F)cc6)c4=O)N(C)CCO5)cc3F)ccnc2c1` [Embodiment 40], the IC50 is below 10 nM.
In the case of `COc1cc2c(Oc3ccc(NC(=O)c4cc5c(n(-c6ccc(F)cc6)c4=O)N(C)CCO5)cc3F)ccnc2cc1OCCCN1CCOCC1` [Embodiment 42], the IC50 lay within 100 to 1000 nM.
On to `CN1CCOc2c1cc(C(=O)Nc1ccc(Oc3ccnc(N)c3)c(F)c1)c(=O)n2-c1ccc(F)cc1` [Embodiment 43], for which the IC50 lay in the range of 10 to 100 nM.
The figure for `COc1cc2c(Oc3ccc(NC(=O)c4cc5c(n(-c6ccc(F)cc6)c4=O)OCCN5C)cc3F)ccnc2cc1OCCCN1CCOCC1` [Embodiment 45] is 100 to 1000 nM.
For `CN1CCOc2c1cc(C(=O)Nc1ccc(Oc3ccnc(N)c3Cl)c(F)c1)c(=O)n2-c1ccc(F)cc1` [Embodiment 46], the IC50 was 10 to 100 nM.
Regarding `COc1ccc2c(Oc3ccc(NC(=O)c4cc5c(n(-c6ccc(F)cc6)c4=O)OCCN5C)cc3F)ccnc2c1` [Embodiment 47], the IC50 is below 10 nM.
The figure for `CCOc1c(C(=O)Nc2ccc(Oc3ccnc(N)c3)c(F)c2)c(=O)n(-c2ccc(F)cc2)c2scnc12` [Embodiment 48] is 100 to 1000 nM; for `CCOc1c(C(=O)Nc2ccc(Oc3ccnc(N)c3Cl)c(F)c2)c(=O)n(-c2ccc(F)cc2)c2scnc12` [Embodiment 49] it is below 10 nM; for `CCOc1c(C(=O)Nc2ccc(Oc3ccnc4cc(OC)ccc34)c(F)c2)c(=O)n(-c2ccc(F)cc2)c2scnc12` [Embodiment 50] it is 10 to 100 nM.
`CN(C)c1c(C(=O)Nc2ccc(Oc3ccnc(N)c3)c(F)c2)c(=O)n(-c2ccc(F)cc2)c2scnc12` [Embodiment 52]: the IC50 lay in the range of 10 to 100 nM.
Consider `CN(C)c1c(C(=O)Nc2ccc(Oc3ccnc(N)c3Cl)c(F)c2)c(=O)n(-c2ccc(F)cc2)c2scnc12` [Embodiment 53], for which the IC50 was below 10 nM.
On to `CN(C)c1c(C(=O)Nc2ccc(Oc3ccnc4[nH]ccc34)c(F)c2)c(=O)n(-c2ccc(F)cc2)c2scnc12` [Embodiment 55], for which the IC50 was 10 to 100 nM.
Turning to `CN(CCO)c1c(C(=O)Nc2ccc(Oc3ccnc(N)c3Cl)c(F)c2)c(=O)n(-c2ccc(F)cc2)c2scnc12` [Embodiment 57], the IC50 fell in the range of 100 to 1000 nM.
With `CN(CCO)c1c(C(=O)Nc2ccc(Oc3ccnc4[nH]ccc34)c(F)c2)c(=O)n(-c2ccc(F)cc2)c2scnc12` [Embodiment 59], the IC50 is 100 to 1000 nM.
